Target: interaction between p53 and MDM2 proteins (recombinant GST-tagged MDM2 / biotinylated p53 peptide) (Homo sapiens, UniProt Q00987)
Test: HTRF assay of inhibition of the p53-MDM2 interaction
Type: binding
Settings: 0.2% BSA
Protocol: The ability of the compounds to inhibit the interaction between p53 and MDM2 proteins was measured by an HTRF (homogeneous time-resolved fluorescence) assay in which recombinant GST-tagged MDM2 binds to a peptide that resembles the MDM2-interacting region of p53 (Lane et al.). Binding of GST-MDM2 protein and p53-peptide (biotinylated on its N-terminal end) is registered by the FRET (fluorescence resonance energy transfer) between Europium (Eu)-labeled anti-GST antibody and streptavidin-conjugated Allophycocyanin (APC).
Test is performed in black flat-bottom 384-well plates (Costar) in a total volume of 40 uL containing: 90 nM biotinylate peptide, 160 ng/ml GST-MDM2, 20 nM streptavidin-APC (PerkinElmerWallac), 2 nM Eu-labeled anti-GST-antibody (PerkinElmerWallac), 0.2% bovine serum albumin (BSA), 1 mM dithiothreitol (DTT) and 20 mM Tris-borate saline (TBS) buffer as follows: Add 10 uL of GST-MDM2 (640 ng/ml working solution) in reaction buffer to each well. Add 10 uL diluted compounds (1:5 dilution in reaction buffer) to each well, mix by shaking. Add 20 uL biotinylated p53 peptide (180 nM working solution) in reaction buffer to each well and mix on shaker. Incubate at 37° C. for 1 h. Add 20 uL streptavidin-APC and Eu-anti-GST antibody mixture (6 nM Eu-anti-GST and 60 nM streptavidin-APC working solution) in TBS buffer with 0.2% BSA, shake at room temperature for 30 minutes and read using a TRF-capable plate reader at 665 and 615 nm (Victor 5, Perkin ElmerWallac). If not specified, the reagents were purchased from Sigma Chemical Co.

Chain of interaction between p53 and MDM2 proteins (recombinant GST-tagged MDM2 / biotinylated p53 peptide) (Q00987 whole entry): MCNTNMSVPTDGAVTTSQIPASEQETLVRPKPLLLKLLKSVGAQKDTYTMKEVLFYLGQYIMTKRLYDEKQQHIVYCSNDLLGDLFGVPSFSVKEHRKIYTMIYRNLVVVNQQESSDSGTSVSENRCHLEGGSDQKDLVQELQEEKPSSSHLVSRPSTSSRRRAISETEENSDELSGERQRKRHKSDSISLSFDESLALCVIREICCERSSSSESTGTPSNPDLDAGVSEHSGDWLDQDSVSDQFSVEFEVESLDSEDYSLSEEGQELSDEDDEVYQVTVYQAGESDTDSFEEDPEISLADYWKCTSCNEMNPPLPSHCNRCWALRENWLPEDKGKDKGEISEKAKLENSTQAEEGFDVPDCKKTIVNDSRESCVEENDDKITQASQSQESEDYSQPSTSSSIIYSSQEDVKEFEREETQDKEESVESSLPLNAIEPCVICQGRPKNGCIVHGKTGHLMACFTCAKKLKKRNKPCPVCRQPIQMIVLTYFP

Compound	IC50 [µM]
C#Cc1ccc(OCC2CCN(C(=O)OC(C)(C)C)CC2)c([C@H]2NC(=O)C[C@@H](c3cccc(Cl)c3)[C@]23C(=O)Nc2cc(Cl)ccc23)c1 (racemic) [Example 2, racemic(2′R,3R,4′S)-2′-[2-(1-(tert-butoxycarbonyl)-4-piperidinylmethoxy)-5-ethynyl-phenyl]-6-chloro-4′-(3-chlorophenyl)spiro[3H-indole-3,3′-piperidine]-2,6′(1H)-dione]	0.205
CC(=O)N1CCC(Oc2ccc(I)cc2[C@H]2NC(=O)[C@@H](c3cccc(Cl)c3)C[C@]23C(=O)Nc2cc(Cl)ccc23)CC1 [Example 5c, chiral(2′R,3R,4′S)-2′-[2-(1-acetyl-4-piperidinyloxy)-5-iodo-phenyl]-6-chloro-4′-(3-chlorophenyl)spiro[3H-indole-3,3′-piperidine]-2,6′(1H)-dione]	0.034

Next, values leading:

IC50 [µM]	Compound
0.048	CC(=O)Nc1ccc(Oc2ccc(Cl)cc2[C@H]2NC(=O)C[C@@H](c3cccc(Cl)c3)[C@]23C(=O)Nc2cc(Cl)ccc23)cc1 (racemic) [Example 87, racemic(2′R, 3R, 4′S)-2′-[2-(4-acetylamino-phenoxy)-5-chloro-phenyl]-6-chloro-4′-(3-chlorophenyl)spiro[3H-indole-3,3′-piperidine]-2,6′(1H)-dione]
0.131	O=C1C[C@@H](c2cccc(Cl)c2)[C@]2(C(=O)Nc3cc(Cl)ccc32)[C@@H](c2cc(Br)ccc2Oc2ccc(C(=O)NCCN3CCCC3)cc2)N1 (racemic) [Example 56, racemic(2′R, 3R, 4′S)-2′-{5-bromo-2-[4-(2-pyrrolidin-1-yl-ethylcarbamoyl)-phenoxy]-phenyl}-6-chloro-4′-(3-chlorophenyl)spiro[3H-indole-3,3′-piperidine]-2,6′(1H)-dione]
0.042	C#Cc1ccc(OC2CCN(C(=O)N(CC)CC)CC2)c([C@H]2NC(=O)C[C@@H](c3cccc(Cl)c3)[C@]23C(=O)Nc2cc(Cl)ccc23)c1 (racemic) [Example 22b, racemic(2′R,3R,4′S)-6-chloro-4′-(3-chlorophenyl)-2′-[2-(1-diethylcarbamoyl-4-piperidinyloxy)-5-ethynyl-phenyl]spiro[3H-indole-3,3′-piperidine]-2,6′(1H)-dione]

Reference: patent US8134001B2, “Spiroindolinone derivatives” (Hoffmann-La Roche Inc., priority 2007, dated 2012)
